Results published in US10301294B2, “Compounds for the treatment of tuberculosis” (priority 2013, dated 2019).

What follows are molecules tested on carbon-starved M. tuberculosis H37Rv (assay: Non-replicating IC90 determination by luciferase (carbon-starved cells)). Conditions: Mycobacterium tuberculosis, H37RV, 120 h; luciferase; None = inhibition did not reach 99%; read-out: Against carbon starved non-replicating Mtb IC99 (uM, luciferase).
Assay type: cell-based

Compound	IC99 [µM]
COCCSc1nnc(-c2ccncc2)o1	500
C#CCOc1ccc(-c2nnc([S+]([O-])Cc3ccccn3)o2)cc1 (stereo not drawn)	31
[N-]=[N+]=NCCCOc1ccc(C[S+]([O-])c2nnc(-c3ccc(F)cc3)o2)nc1 (stereo not drawn)	4
COCCSc1nnc(-c2ccc(Cl)cc2)o1	16
Clc1ccc(-c2nnc(SCc3ccccn3)o2)cc1	16
c1ccc(CSc2nnc(-c3cccnc3)o2)nc1	250
Fc1cccc(-c2nnc(SCc3ccccn3)o2)c1 [drawing 216]	16
Clc1ccc(-c2nnc(NCc3ccccn3)o2)cc1	125
COCCOc1nnc(-c2ccc(Cl)cc2)o1	250
Fc1ccc(CCSc2nnc(-c3ccccc3)o2)cc1	250
Clc1ccc(-c2nnc(OCc3ccccn3)o2)cc1	250
c1ccc(-c2nnc(SCc3cccnc3)o2)cc1 [drawing 178]	250
Cc1ccc(-c2nnc(SCc3ccccn3)o2)cc1	16
[O-][n+]1ccccc1CSc1nnc(-c2ccccc2)o1 [drawing 194]	125
COCCSc1nnc(-c2ccccc2)o1 [drawing 175]	16
[N-]=[N+]=NCCOCCNC(=O)c1ccc(C[S+]([O-])c2nnc(-c3ccc(Cl)cc3)o2)nc1 (stereo not drawn)	62
COCCSc1nnc(-c2ccc(C)cc2)o1	31
c1ccc(-c2nnc(SC3CCCCC3)o2)cc1 [drawing 181]	62
[N-]=[N+]=NOCCNC(=O)CCCOc1ccc(-c2nnc([S+]([O-])Cc3ccccn3)o2)cc1 (stereo not drawn)	62
CCOC(=O)CSc1nnc(-c2ccccc2)o1	250
COc1ccccc1-c1nnc(SCc2ccccn2)o1	125
Clc1ccc(-c2nnc(SCc3cn(Cc4ccccc4)nn3)o2)cc1 [drawing 224]	16
Fc1ccc(-c2nnc(SCc3ccccn3)o2)cc1 [drawing 215]	62

Compound	IC99 [µM]
Cc1cccc(CSc2nnc(-c3ccc(Cl)cc3)o2)n1	31
[O-][S+](Cc1cn(Cc2ccccc2)nn1)c1nnc(-c2ccc(Cl)cc2)o1 (stereo not drawn) [drawing 223]	8
CS(=O)(=O)c1nnc(-c2ccc(Cl)cc2)o1	8
Oc1ccc(-c2nnc(SCc3ccccn3)o2)cc1	62
Fc1ccc(CSc2nnc(-c3cccnc3)o2)cc1	62
CN1CCCCC1COc1nnc(-c2ccc(Cl)cc2)o1 (stereo not drawn)	500
COCC[S+]([O-])c1nnc(-c2ccc(Cl)cc2)o1 (stereo not drawn) [drawing 196]	31
C#CCCCOc1ccc(CSc2nnc(-c3ccc(F)cc3)o2)nc1	16
[N-]=[N+]=NCCCOc1ccc(CSc2nnc(-c3ccc(F)cc3)o2)nc1	16
Fc1ccc(-c2nnc(SCCN3CCCC(F)(F)C3)o2)cc1	250
COC(=O)CCCOc1ccc(CSc2nnc(-c3ccc(F)cc3)o2)nc1	31
c1ccc(-c2nnc(SCc3ccncc3)o2)cc1 [drawing 179]	500
COCCS(=O)(=O)c1nnc(-c2ccc(C)cc2)o1	8
COC(=O)c1ccc(C[S+]([O-])c2nnc(-c3ccc(Cl)cc3)o2)nc1 (stereo not drawn)	4
O=S(=O)(Cc1ccccc1)c1nnc(-c2ccccc2)o1 [drawing 214]	16
Oc1cccc(-c2nnc(SCc3ccccn3)o2)c1	62
COC(=O)CCCOc1ccc(-c2nnc(SCc3ccccn3)o2)cc1	250
[N-]=[N+]=NCCOCCNC(=O)CCCOc1ccc(C[S+]([O-])c2nnc(-c3ccc(F)cc3)o2)nc1 (stereo not drawn)	31
[N-]=[N+]=NCCOCCNC(=O)CCCOc1ccc(C[S+]([O-])c2nnc(-c3ccc(Cl)cc3)o2)nc1 (stereo not drawn) [drawing 240]	16
COc1ccc(-c2nnc(SCc3ccccn3)o2)cc1	16
c1ccc(-c2nnc(SCCC3OCCCO3)o2)cc1 [drawing 168]	62
CS(=O)(=O)c1nnc(-c2ccccc2)o1	62
C#CCCCOc1cc(-c2nnc(SCc3ccccn3)o2)ccc1OC	16

Compound	IC99 [µM]
COCCS(=O)(=O)c1nnc(-c2ccc(Cl)cc2)o1	250
COc1cccc(-c2nnc(SCc3ccccn3)o2)c1 [drawing 227]	16
c1ccc(-c2nnc(SCC3CC3)o2)cc1	31
COC(=O)c1ccc(CSc2nnc(-c3ccc(Cl)cc3)o2)nc1	16
c1ccc(-c2nnc(SCc3ccccn3)o2)cc1 [drawing 177]	31
Clc1ccc(-c2nnc(SCCC3OCCCO3)o2)cc1	8
OCC#CCSc1nnc(-c2ccc(Cl)cc2)o1	8
CCCCCCCCCCCCSc1nnc(-c2ccccc2)o1	62
C#CCCCOc1ccc(C[S+]([O-])c2nnc(-c3ccc(F)cc3)o2)nc1 (stereo not drawn)	31
Brc1ccc(-c2nnc(SCc3ccccn3)o2)cc1 [drawing 212]	8
COc1ccc(CSc2nnc(-c3ccc(Cl)cc3)o2)nc1 [drawing 228]	8
[N-]=[N+]=NCCOCCNC(=O)CCCn1cc(C[S+]([O-])c2nnc(-c3ccc(F)cc3)o2)nn1 (stereo not drawn)	500
CCSc1nnc(-c2ccccc2)o1	250
COC(=O)CCCOc1ccc(CSc2nnc(-c3ccc(Cl)cc3)o2)nc1 [drawing 233]	16
Cc1ccc(-c2nnc([S+]([O-])Cc3cccc[n+]3[O-])o2)cc1 (stereo not drawn)	62
c1ccc(CSc2nnc(-c3ccncc3)o2)nc1	500
CCOC(=O)COc1ccc(-c2nnc(SCc3ccccn3)o2)cc1	31
Brc1cccc(-c2nnc(SCc3ccccn3)o2)c1 [drawing 217]	31
CC(C)(C)c1ccc(CSc2nnc(-c3ccc(Cl)cc3)o2)cc1	62
[O-][S+](Cc1ccccn1)c1nnc(-c2ccc(Cl)cc2)o1 (stereo not drawn) [drawing 195]	4
COc1cc(-c2nnc(SCc3ccccn3)o2)ccc1F	16
C#CCCCOc1cccc(-c2nnc(SCc3ccccn3)o2)c1	16
C#CCSc1nnc(-c2ccc(Cl)cc2)o1	16

Same assay, conditions: Mycobacterium tuberculosis, H37RV; luciferase; IC90 given in brackets beside IC99; read-out: Against carbon starved non-replicating Mtb IC90 (in brackets, luciferase)

Compound	IC90 [µM]
Fc1ccc(-c2nnc(SCCN3CCCC(F)(F)C3)o2)cc1	1
Fc1ccc(-c2nnc(SCCN3CCN(c4ccccc4)CC3)o2)cc1	4
Fc1ccc(-c2nnc(SCCN3CCC(F)(F)CC3)o2)cc1	1
[N-]=[N+]=NCCOCCNC(=O)CCCn1cc(C[S+]([O-])c2nnc(-c3ccc(F)cc3)o2)nn1 (stereo not drawn)	125

Same assay, conditions: luciferase; None = inhibition did not reach 99%

Compound	Against carbon starved non-replicating Mtb IC99 (uM, luciferase)
c1ccc(-c2nnc(OCc3ccccn3)o2)cc1	None
CSc1nnc(-c2ccccc2)o1	None
O=C(CSc1nnc(-c2ccccc2)o1)c1ccc(Br)cc1	None
COCCNc1nnc(-c2ccc(Cl)cc2)o1	None
[N-]=[N+]=NCCOCCNC(=O)CCCOc1ccc(CSc2nnc(-c3ccc(F)cc3)o2)nc1	None
Fc1ccc(CSc2nnc(-c3ccccc3)o2)cc1 [drawing 172]	None
COCCSc1nnc(-c2cccnc2)o1	None
Fc1ccc(CSc2nnc(-c3ccncc3)o2)cc1	None
c1ccc(-c2nnc(NCc3ccccn3)o2)cc1	None
Fc1ccc(CSc2nnc(-c3ccc(Cl)cc3)o2)cc1	None
Fc1ccc(-c2nnc(SCCN3CCN(c4ccccc4)CC3)o2)cc1	None
c1cc(-c2nnc(SCCC3OCCCO3)o2)ccn1	None
Fc1ccc(-c2nnc(SCCN3CCC(F)(F)CC3)o2)cc1	None

These molecules were tested on replicating M. tuberculosis H37Rv (assay: microbe, parasite or virus in culture). Conditions: Mycobacterium tuberculosis, H37RV, None = inhibition did not reach 90%, read-out: Against Replicating Mtb IC90 (uM, GFP).
Assay type: cell-based

Compound	IC90 [µM]
c1ccc(-c2nnc(OCc3ccccn3)o2)cc1	> 500
COCCSc1nnc(-c2ccncc2)o1	> 500
C#CCOc1ccc(-c2nnc([S+]([O-])Cc3ccccn3)o2)cc1 (stereo not drawn)	31
[N-]=[N+]=NCCCOc1ccc(C[S+]([O-])c2nnc(-c3ccc(F)cc3)o2)nc1 (stereo not drawn)	31
COCCSc1nnc(-c2ccc(Cl)cc2)o1	50
Clc1ccc(-c2nnc(SCc3ccccn3)o2)cc1	62
c1ccc(CSc2nnc(-c3cccnc3)o2)nc1	> 500
Fc1cccc(-c2nnc(SCc3ccccn3)o2)c1 [drawing 216]	31
Clc1ccc(-c2nnc(NCc3ccccn3)o2)cc1	500
CSc1nnc(-c2ccccc2)o1	> 250
O=C(CSc1nnc(-c2ccccc2)o1)c1ccc(Br)cc1	> 500
COCCOc1nnc(-c2ccc(Cl)cc2)o1	> 500
Fc1ccc(CCSc2nnc(-c3ccccc3)o2)cc1	250
COCCNc1nnc(-c2ccc(Cl)cc2)o1	> 500
Clc1ccc(-c2nnc(OCc3ccccn3)o2)cc1	250
COc1ccc(CSc2nnc(-c3ccc(F)cc3)o2)nc1	16 to 31
c1ccc(-c2nnc(SCc3cccnc3)o2)cc1 [drawing 178]	125
Cc1ccc(-c2nnc(SCc3ccccn3)o2)cc1	31
[N-]=[N+]=NCCOCCNC(=O)CCCOc1ccc(CSc2nnc(-c3ccc(F)cc3)o2)nc1	125
[O-][n+]1ccccc1CSc1nnc(-c2ccccc2)o1 [drawing 194]	62
COCCSc1nnc(-c2ccccc2)o1 [drawing 175]	125
[N-]=[N+]=NCCOCCNC(=O)c1ccc(C[S+]([O-])c2nnc(-c3ccc(Cl)cc3)o2)nc1 (stereo not drawn)	250
Fc1ccc(CSc2nnc(-c3ccccc3)o2)cc1 [drawing 172]	125
COCCSc1nnc(-c2ccc(C)cc2)o1	31
c1ccc(-c2nnc(SC3CCCCC3)o2)cc1 [drawing 181]	> 500
COCCSc1nnc(-c2cccnc2)o1	> 500

Compound	IC90 [µM]
[N-]=[N+]=NOCCNC(=O)CCCOc1ccc(-c2nnc([S+]([O-])Cc3ccccn3)o2)cc1 (stereo not drawn)	125
Fc1ccc(CSc2nnc(-c3ccncc3)o2)cc1	> 500
CCOC(=O)CSc1nnc(-c2ccccc2)o1	500
[O-][S+](Cc1ccccn1)c1nnc(-c2ccc(F)cc2)o1 (stereo not drawn)	31
Fc1ccc(-c2nnc(SCc3ccccn3)o2)cc1 [drawing 215]	31
Cc1cccc(CSc2nnc(-c3ccc(Cl)cc3)o2)n1	62
[O-][S+](Cc1cn(Cc2ccccc2)nn1)c1nnc(-c2ccc(Cl)cc2)o1 (stereo not drawn) [drawing 223]	62
CS(=O)(=O)c1nnc(-c2ccc(Cl)cc2)o1	125
c1ccc(-c2nnc(NCc3ccccn3)o2)cc1	> 500
Oc1ccc(-c2nnc(SCc3ccccn3)o2)cc1	125
Fc1ccc(CSc2nnc(-c3cccnc3)o2)cc1	> 500
CN1CCCCC1COc1nnc(-c2ccc(Cl)cc2)o1 (stereo not drawn)	> 500
COCC[S+]([O-])c1nnc(-c2ccc(Cl)cc2)o1 (stereo not drawn) [drawing 196]	31
C#CCCCOc1ccc(CSc2nnc(-c3ccc(F)cc3)o2)nc1	31
[N-]=[N+]=NCCCOc1ccc(CSc2nnc(-c3ccc(F)cc3)o2)nc1	31
Fc1ccc(CSc2nnc(-c3ccc(Cl)cc3)o2)cc1	> 500
Fc1ccc(-c2nnc(SCCN3CCCC(F)(F)C3)o2)cc1	250
COC(=O)CCCOc1ccc(CSc2nnc(-c3ccc(F)cc3)o2)nc1	125
c1ccc(-c2nnc(SCc3ccncc3)o2)cc1 [drawing 179]	250
COCCS(=O)(=O)c1nnc(-c2ccc(C)cc2)o1	31
COC(=O)c1ccc(C[S+]([O-])c2nnc(-c3ccc(Cl)cc3)o2)nc1 (stereo not drawn)	125
Fc1ccc(-c2nnc(SCCN3CCN(c4ccccc4)CC3)o2)cc1	250
O=S(=O)(Cc1ccccc1)c1nnc(-c2ccccc2)o1 [drawing 214]	125
Oc1cccc(-c2nnc(SCc3ccccn3)o2)c1	125
COC(=O)CCCOc1ccc(-c2nnc(SCc3ccccn3)o2)cc1	500
[N-]=[N+]=NCCOCCNC(=O)CCCOc1ccc(C[S+]([O-])c2nnc(-c3ccc(F)cc3)o2)nc1 (stereo not drawn)	125

Compound	IC90 [µM]
c1cc(-c2nnc(SCCC3OCCCO3)o2)ccn1	> 500
[N-]=[N+]=NCCOCCNC(=O)CCCOc1ccc(C[S+]([O-])c2nnc(-c3ccc(Cl)cc3)o2)nc1 (stereo not drawn) [drawing 240]	250
COc1ccc(-c2nnc(SCc3ccccn3)o2)cc1	62
c1ccc(-c2nnc(SCCC3OCCCO3)o2)cc1 [drawing 168]	125
CS(=O)(=O)c1nnc(-c2ccccc2)o1	250
COCCS(=O)(=O)c1nnc(-c2ccc(Cl)cc2)o1	> 500
COc1cccc(-c2nnc(SCc3ccccn3)o2)c1 [drawing 227]	62
c1ccc(-c2nnc(SCC3CC3)o2)cc1	125
c1ccc(-c2nnc(SCc3ccccn3)o2)cc1 [drawing 177]	100
Clc1ccc(-c2nnc(SCCC3OCCCO3)o2)cc1	62
OCC#CCSc1nnc(-c2ccc(Cl)cc2)o1	62
CCCCCCCCCCCCSc1nnc(-c2ccccc2)o1	125
C#CCCCOc1ccc(C[S+]([O-])c2nnc(-c3ccc(F)cc3)o2)nc1 (stereo not drawn)	31
COc1ccc(C[S+]([O-])c2nnc(-c3ccc(F)cc3)o2)nc1 (stereo not drawn)	31
Brc1ccc(-c2nnc(SCc3ccccn3)o2)cc1 [drawing 212]	31
COc1ccc(CSc2nnc(-c3ccc(Cl)cc3)o2)nc1 [drawing 228]	31
[N-]=[N+]=NCCOCCNC(=O)CCCn1cc(C[S+]([O-])c2nnc(-c3ccc(F)cc3)o2)nn1 (stereo not drawn)	500
CCSc1nnc(-c2ccccc2)o1	200
COC(=O)CCCOc1ccc(CSc2nnc(-c3ccc(Cl)cc3)o2)nc1 [drawing 233]	31
Cc1ccc(-c2nnc([S+]([O-])Cc3cccc[n+]3[O-])o2)cc1 (stereo not drawn)	125
c1ccc(CSc2nnc(-c3ccncc3)o2)nc1	> 500
Brc1cccc(-c2nnc(SCc3ccccn3)o2)c1 [drawing 217]	62
CC(C)(C)c1ccc(CSc2nnc(-c3ccc(Cl)cc3)o2)cc1	250
[O-][S+](Cc1ccccn1)c1nnc(-c2ccc(Cl)cc2)o1 (stereo not drawn) [drawing 195]	31
C#CCSc1nnc(-c2ccc(Cl)cc2)o1	31

Same assay, conditions: None = inhibition did not reach 90%

Compound	Against Replicating Mtb IC90 (uM, GFP)
COc1ccccc1-c1nnc(SCc2ccccn2)o1	None
Clc1ccc(-c2nnc(SCc3cn(Cc4ccccc4)nn3)o2)cc1 [drawing 224]	None
C#CCCCOc1cc(-c2nnc(SCc3ccccn3)o2)ccc1OC	None
Fc1ccc(-c2nnc(SCCN3CCC(F)(F)CC3)o2)cc1	None
COC(=O)c1ccc(CSc2nnc(-c3ccc(Cl)cc3)o2)nc1	None
CCOC(=O)COc1ccc(-c2nnc(SCc3ccccn3)o2)cc1	None
COc1cc(-c2nnc(SCc3ccccn3)o2)ccc1F	None
C#CCCCOc1cccc(-c2nnc(SCc3ccccn3)o2)c1	None
